These results are taken from paper PMC10709440, “High-throughput ligand profile characterization in novel cell lines expressing seven heterologous insect olfactory receptors for the detection of volatile plant biomarkers” (Scientific Reports, 2023).

Read-outs that look alike come from different tables or passages of the source.

In one test the target is T1, Drosophila OR10a (Drosophila melanogaster, UniProt Q9VYZ1).
T1 construct: expressed in transfected cells
T1 sequence (Q9VYZ1 1-406): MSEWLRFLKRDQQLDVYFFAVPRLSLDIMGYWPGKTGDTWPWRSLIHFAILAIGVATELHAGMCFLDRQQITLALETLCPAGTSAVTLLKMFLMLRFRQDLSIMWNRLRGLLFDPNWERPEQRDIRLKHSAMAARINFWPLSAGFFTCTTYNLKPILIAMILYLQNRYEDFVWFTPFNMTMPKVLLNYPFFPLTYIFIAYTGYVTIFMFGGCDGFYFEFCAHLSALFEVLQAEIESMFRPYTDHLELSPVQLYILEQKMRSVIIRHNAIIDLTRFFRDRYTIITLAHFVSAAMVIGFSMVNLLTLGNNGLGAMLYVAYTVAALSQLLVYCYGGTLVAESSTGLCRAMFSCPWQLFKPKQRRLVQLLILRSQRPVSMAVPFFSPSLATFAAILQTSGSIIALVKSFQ
T1 sequence (Q9VNB5 1-486 partner): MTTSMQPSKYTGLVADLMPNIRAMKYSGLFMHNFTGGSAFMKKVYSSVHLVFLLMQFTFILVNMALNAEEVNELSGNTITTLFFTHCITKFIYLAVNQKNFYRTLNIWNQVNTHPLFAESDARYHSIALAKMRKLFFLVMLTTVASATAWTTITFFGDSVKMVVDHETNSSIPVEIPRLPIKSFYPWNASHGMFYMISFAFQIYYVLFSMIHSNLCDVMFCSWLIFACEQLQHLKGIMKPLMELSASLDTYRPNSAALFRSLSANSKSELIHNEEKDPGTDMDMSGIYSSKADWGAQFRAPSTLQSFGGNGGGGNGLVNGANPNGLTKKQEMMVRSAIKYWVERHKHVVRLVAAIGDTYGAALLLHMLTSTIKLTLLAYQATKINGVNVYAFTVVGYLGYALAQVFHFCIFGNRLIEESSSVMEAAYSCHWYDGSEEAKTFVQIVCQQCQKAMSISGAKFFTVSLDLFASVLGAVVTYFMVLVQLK
Kind of test: Calcium ion fluorescence (GCaMP6) assay, OR10a stable HEK293 cell line. In kind it is cell-based. To be noted: for DF norm AVERAGE OR10a: threshold 0.05, below shown as 0. Here is the method:
(§1) These VUAA1 normalized ∆F values were used to compare the different receptors and ligands.
(§2) The concentration-dependent effect of the reference ligands on their cognate cell lines was examined in more detail. Twelve different ligand concentrations were measured on each cell line in an overall 0.01 μM to 100 μM concentration range with 5 repetitions with three technical replicates each time.
(§3) Twelve thousand to 18,000 cells were plated into each well of a black wall, transparent bottom 384-well microplate (Greiner) 48 h or 72 h before the measurements and were simultaneously treated with 1 μg/mL doxycycline. […] The plate has 24 columns, thus we could record responses in up to eight different cell lines in each plate. On the day of the experiment, the growth medium was replaced with 20 µL assay buffer/well (140 mM NaCl, 5 mM KCl, 2 mM CaCl2, 1 mM MgCl2, 5 mM HEPES-Na, 20 mM glucose, pH 7.3, 340 mOsm). […] Baseline fluorescence (F0) was recorded for 5 s, after which 7 µL VOC buffer (140 mM NaCl, 5 mM KCl, 2 mM CaCl2, 1 mM MgCl2, 5 mM HEPES-Na, 31 mM glucose, 0.1% DMSO, pH 7.3, 340 mOsm) was injected into each well in one row and the fluorescence response was recorded for an additional 30 s, at a rate of one read/sec. VOC solutions (VOC buffer with 4× concentration of the final measured VOC concentration, 9 µL/well was injected) were measured on the same wells in a second round with the same protocol. Each individual concentration of a specific VOC sample was recorded in three wells for the same cell line on the same microplate. The raw data were exported in xls file format, F0 and FMAX values, and the fluorescence intensity changes (∆F) were calculated in Excel (Microsoft) (Supplementary file Data summary.xlsx) using the following equation: ΔF=FMAX-F0/F0 (see also Fig. 1C). On each plate, we recorded the response of each cell line to 50 µM VUAA1. The average of these ∆F values of each cell line were used to calculate the VUAA1-normalized values for the rest of the plate, by dividing VOC response ∆F values by the average VUAA1 response ∆F value of the corresponding OR cell line. Each VOC-OR combination was measured three times as technical replicates. […] The average of these replicates were used as one ∆F and VUAA1-normalized ∆F in the following analysis.
(§4) In the next rows we tested the reference VOCs (or other VOCs known to activate the corresponding cell lines), in order to test if all cell lines are responsive. The remaining rows were used to test VOCs with unknown effect.
(§5) The recorded FMAX, F0, ∆F, VUAA1-normalized ∆F values, as well as the OR name, the name of the tested sample, and the final concentration for each well were copied into supplementary file Data summary.xlsx, that was used to summarize all the plates recorded. Here, the averages of the measurements were calculated for each receptor-VOC-concentration combination.

The target of the next test is T2, Drosophila OR47a (Drosophila melanogaster, UniProt P81921).
T2 construct: expressed in transfected cells
T2 sequence (P81921 1-385): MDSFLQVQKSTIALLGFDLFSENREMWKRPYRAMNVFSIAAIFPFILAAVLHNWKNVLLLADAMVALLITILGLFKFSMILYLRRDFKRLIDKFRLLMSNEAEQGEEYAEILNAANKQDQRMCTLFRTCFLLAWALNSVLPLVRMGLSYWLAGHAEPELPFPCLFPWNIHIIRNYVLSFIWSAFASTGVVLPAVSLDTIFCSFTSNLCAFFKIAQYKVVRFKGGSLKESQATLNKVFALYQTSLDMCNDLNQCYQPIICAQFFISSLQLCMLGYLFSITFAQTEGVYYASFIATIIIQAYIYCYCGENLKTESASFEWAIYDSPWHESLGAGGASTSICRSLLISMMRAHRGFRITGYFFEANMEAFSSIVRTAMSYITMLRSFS
T2 sequence (Q9VNB5 1-486 partner): T1 sequence (Q9VNB5 1-486 partner)
Kind of test: Calcium ion fluorescence (GCaMP6) assay, OR47a stable HEK293 cell line. In kind it is cell-based. Conditions: for Average response: OR47a cell line, mean of biological replicates; for DF norm AVERAGE OR47a: normalized fluorescence change, values below 0.05 threshold given as 0. The procedure:
as §1, §2, §3, §4, §5

Where [1] appears, read: HEK293, 1 μM VOC, 50 μM VUAA1 = 1, responses not exceeding 0.05 considered 0, read-out: OR10a Average response (VUAA1-normalized).
The mark [2] stands for this setting: HEK293, 10 μM VOC, 50 μM VUAA1 = 1, responses not exceeding 0.05 considered 0, read-out: OR10a Average response (VUAA1-normalized).
Setting [3] is: HEK293, 100 μM VOC, 50 μM VUAA1 = 1, responses not exceeding 0.05 considered 0, read-out: OR10a Average response (VUAA1-normalized).
Setting [4] is: HEK293, read-out: OR10a response (VUAA1-normalized response), VOC concentration 1 μM.
The mark [5] stands for this setting: HEK293, read-out: OR10a response (VUAA1-normalized response), VOC concentration 10 μM.
Where [6] appears, read: HEK293, read-out: OR10a response (VUAA1-normalized response), VOC concentration 100 μM.
Setting [7] is: HEK293, read-out: OR47a response (VUAA1-normalized response).
Where [8] appears, read: ligand concentration 1 (unit not given).
Setting [9] is: ligand concentration 10 (unit not given).
Where [10] appears, read: ligand concentration 100 (unit not given).
[11] abbreviates: 100 µM, OR10a clone G5, single plate 2019.12.05.

As to `C=C1CC/C=C(\C)CC[C@@H]2[C@@H]1CC2(C)C` [(-)-trans-caryophyllene], the activation at 1 µM at Drosophila OR10a (setting [1]) worked out at 14%; at Drosophila OR10a (setting [4]) it was 14%; at Drosophila OR47a (setting [7]), 0%. Also, the figures for the activation at 10 µM on Drosophila OR10a (setting [2]), on Drosophila OR10a (setting [5]) and on Drosophila OR47a (setting [7]) were 20%, 20% and 0%, respectively. Besides, the activation at 100 µM on Drosophila OR10a (setting [3]) was determined as 6.61%; at Drosophila OR10a (setting [6]), 6.61%; at Drosophila OR47a (setting [7]), 0%. Moreover, the Average response at Drosophila OR47a (odorant cc. 1 µM) was determined as 0.0166; at Drosophila OR47a (odorant cc. 10 µM), 0.0326; at Drosophila OR47a (odorant cc. 100 µM), 0.00. Besides, the “DF norm AVERAGE OR47a” value on Drosophila OR47a (concentration 1), on Drosophila OR47a (concentration 10) and on Drosophila OR47a (concentration 100) was 0 each time.

As for `CCCCOC(C)=O` [butyl acetate], the activation at 1 µM worked out at 3% at Drosophila OR10a (HEK293, read-out: OR10a Average response (VUAA1-normalized), 1 μM VOC, 50 μM VUAA1 = 1, responses not exceeding 0.05 considered 0) and 0% at Drosophila OR10a (setting [4]). Also, the activation at 10 µM on Drosophila OR10a (HEK293, read-out: OR10a Average response (VUAA1-normalized), 10 μM VOC, 50 μM VUAA1 = 1, responses not exceeding 0.05 considered 0) was 0%; on Drosophila OR10a (setting [5]), 0%. Moreover, the activation at 100 µM at Drosophila OR10a (HEK293, read-out: OR10a Average response (VUAA1-normalized), 100 μM VOC, 50 μM VUAA1 = 1, responses not exceeding 0.05 considered 0) worked out at 5%; on Drosophila OR10a (setting [6]), 0%. Besides, the “DF norm AVERAGE OR10a” value at Drosophila OR10a (setting [8]), at Drosophila OR10a (setting [9]) and on Drosophila OR10a (setting [10]) was 0 in each case.

For `CCCCOC(=O)CC` [butyl propanoate], the “DF norm, all technical replicates” value at Drosophila OR10a (setting [11]) came to 0. Moreover, the “DF norm, outlier technical replicates removed” value on Drosophila OR10a (setting [11]) was found to be 0. Further, the “DF, outlier technical replicates removed” value at Drosophila OR10a (setting [11]) was determined as 0. The “DF, all technical replicates” value on Drosophila OR10a (100 µM, OR10a clone G5, single plate 2019.12.05, xc+0.1%DMSO) is given as 0. Also, the activation at 1 µM on Drosophila OR10a (setting [1]) and on Drosophila OR10a (setting [4]) was 0% throughout. Also, the activation at 10 µM on Drosophila OR10a (setting [2]) and on Drosophila OR10a (setting [5]) was 0% each time. For the same molecule, the activation at 100 µM on Drosophila OR10a (setting [3]) turned out to be 3.44%; at Drosophila OR10a (setting [6]), 0%. The “DF norm AVERAGE OR10a” value on Drosophila OR10a (setting [8]), at Drosophila OR10a (setting [9]) and at Drosophila OR10a (setting [10]) was 0 in each case.
